Laboratory results reported in patent publication US20250134855A1, “CO[…] AND METHODS OF USING SAME” (LYKOS THERAPEUTICS, INC., priority 2022, published 2025).
Structures can show the parent of a compound that is named as a salt. Where two headings read alike, the source gives them in different places.

How the values were obtained:
[1] = Particle size of MDMA measured by laser diffraction; format: physicochemical
[2] = Solubility and permeability of MDMA·HCl
[3] = Stress-tests of thermal stability of MDMA·HCl; conditions: 70-80° C.
CYP2D6 = CYP2D6 (Homo sapiens, UniProt P10635); experiment: CYP2D6 inhibition
Chain of CYP2D6 (P10635 whole entry): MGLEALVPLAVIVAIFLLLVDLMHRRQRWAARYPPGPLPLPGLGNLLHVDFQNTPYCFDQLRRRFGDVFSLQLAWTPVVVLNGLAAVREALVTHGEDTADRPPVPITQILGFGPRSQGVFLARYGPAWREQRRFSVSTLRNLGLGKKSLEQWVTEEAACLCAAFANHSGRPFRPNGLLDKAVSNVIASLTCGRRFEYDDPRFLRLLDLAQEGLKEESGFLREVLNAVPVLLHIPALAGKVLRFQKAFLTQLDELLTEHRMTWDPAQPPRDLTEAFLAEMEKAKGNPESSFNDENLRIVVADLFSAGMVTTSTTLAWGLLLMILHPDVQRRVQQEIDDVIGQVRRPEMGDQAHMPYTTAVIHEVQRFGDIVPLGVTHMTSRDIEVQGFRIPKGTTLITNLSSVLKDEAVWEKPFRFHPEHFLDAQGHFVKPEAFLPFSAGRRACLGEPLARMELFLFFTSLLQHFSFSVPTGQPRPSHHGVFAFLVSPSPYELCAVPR

CYPs = experiment: CYP induction and inhibition of CYPs other than CYP2D6
healthy individuals = experiment: Study MPKF: safety and tolerability (AEs, laboratory, vital signs); format: in vivo, human
Description: (§1) The MPKF was a Phase 1, open-label, randomized sequence, multi-dose, 2-period crossover food effect study in 16 healthy individuals. The MPKF study evaluated plasma concentrations of both MDMA and the active metabolite 3,4-methylenedioxyamphetamine (MDA). Summary PK Parameters of the preliminary data was based on interim analysis are presented in Table 12 Table 12 Table 12, and Table 13 Table 13 Table 13 for MDMA and MDA, respectively.
(§2) Participants remained at the clinical research unit (CRU) for each Dosing Session from the time of check-in on the night before dosing until discharge 48 hours after dosing for collection of serial blood samples for PK analysis and safety monitoring. IMP was administered on Day 1 following the treatment sequence to which the participant was randomized. An additional outpatient visit occurred 72 hours after dosing to collect a final PK sample, commensurate with the expected PK profiles of MDMA and MDA. Safety assessments were also performed at this visit.
(§3) The washout period between Dosing Sessions was at least 14 days. If a participant experienced emesis within 4 hours of administration, they were to be withdrawn from the study and replaced with a new participant. An End of Study Visit was performed 2 to 10 days after the completion of the final Dosing Session 72-hour follow-up. An informal interim analysis was planned to be conducted after at least 5 participants completed at least 1 Dosing Session to examine PK variability.

[4] = Study MPKF: plasma pharmacokinetics of MDMA and MDA, single 120 mg MDMA·HCl, fasted/fed; format: in vivo, human; conditions: for Vd: read-out: volume of distribution
Description: as §1
Participants were randomized to receive 1 of 2 conditions before the other: • Fasted Treatment: at least 10 hours of fasting followed by administration of MDMA HCl with 240 mL water. • Fed Treatment: at least 10 hours of fasting followed by a high-fat (approximately 50% of total caloric content of the meal) and high-calorie (approximately 800 to 1000 calories) meal was consumed within 30 minutes prior to IMP administration.
as §2, §3
The API was a white crystalline powder of pharmaceutical quality, made according to current Good Manufacturing Practices (cGMP) for human use.
Participants: Sixteen healthy individuals were recruited for the study.
Intervention: The study was conducted as a Phase 1, open-label, randomized sequence, multi-dose, 2-period crossover food effect study. Each participant received multiple doses of MDMA, and plasma concentrations of both MDMA and the active metabolite MDA were measured.
Sample Collection: Blood samples were collected at various time points up to 72 hours after dosing. The samples were analyzed using validated liquid chromatography-tandem mass spectrometry (LC-MS/MS) methods.
Data Analysis: The summary PK parameters were presented in Table 12 for MDMA and Table 13 for MDA. The data were analyzed using descriptive statistics, and the mean and standard deviation were calculated. The results were compared between the two periods and analyzed for food effects. Statistical analyses were performed using appropriate methods, such as analysis of variance (ANOVA) and paired t-tests. A p-value of less than 0.05 was considered statistically significant.

[5] = Forced degradation and storage stability of MDMA·HCl API; format: physicochemical
Description: The crystalline, anhydrous form (Form 1) of MDMA·HCl is used for clinical development and commercialization purpose.
The long-term chemical stability of MDMA·HCl, Form I appears in FIG. 9 and FIG. 10.

healthy subjects = experiment: QTc interval, randomized crossover study; format: in vivo, human
Description: The effect of MDMA·HCl on the QTc interval was evaluated in a randomized, crossover study in N healthy subjects.

[6] = paroxetine 20 mg a day for three days; single 100 mg dose of MDMA; cited from earlier work
[7] = cited from earlier work

Compound `CNC(C)Cc1ccc2c(c1)OCO2.Cl` (stereo not drawn) [CJS194-5] has a Dv10 [1] of 23.4 μm, a Dv50 [1] of 151 μm and a Dv90 [1] of 341 μm.
For `CNC(C)Cc1ccc2c(c1)OCO2` (stereo not drawn) [MDMA·HCl, MDMA hydrochloride], the solubility [2] was “high”, the permeability ([2]; not told) was “high” and the “stability in stress-tests, duration” value [3] was 72 h. The CYP2D6 inhibition (CYP2D6) was “strong CYP2D6 inhibitor”, the “induction of CYPs” value (CYPs) was “not an inducer of CYPs” and the “inhibition of CYPs other than CYP2D6” value (CYPs; human) was “did not inhibit CYPs other than CYP2D6 in a clinically meaningful manner”. The “participants with nausea and vomiting” value (healthy individuals; fasted session) was 12.5%, the “SAEs and AESI” value (healthy individuals; in vivo) was “No SAEs nor AESI were reported” and the overall tolerability (healthy individuals; single dose of 120 mg MDMA HCl) was “well tolerated”. The “participants reporting TEAEs” value (healthy individuals; single dose of 120 mg MDMA HCl) was 37.5%, the participants with headache (healthy individuals; single dose of 120 mg MDMA HCl) was 31.3% and the “effect of food on exposure” value ([4]; high-fat meal vs fasting, single 120 mg MDMA·HCl) was “not affected by food”. For the same compound, the half-life ([4]; human, plasma, oral, 120 mg, single 120 mg dose of MDMA·HCl, fasting, read-out: t1/2 (converted)) was 9 h, the Vd ([4]; human, plasma, oral, single 100 mg dose of MDMA·HCl) was 372 L and the Vd ([4]; human, plasma, oral, single 120 mg dose of MDMA·HCl) was 430 L. The “time over which long term chemical stability remains constant” value ([5]; 25 degrees celsius at 60% RH, no change in appearance or increase in degradation products) was “up to 60 months”, the forced degradation ([5]; 7 days (FIG. 8)) was “minimal degradation” and the “time over which chemical stability is not affected” value ([5]; higher humidity and temperature, 40 degrees celsius at 75% RH (FIG. 11)) was “up to 12 months”. For the same compound, the “increase in heart rate” value (healthy subjects; healthy subjects) was over 10 bpm and the QTc prolongation (healthy subjects; therapeutic dose, totality of nonclinical and clinical data) was “lack of clinically relevant QTc prolongation”.
`CNC(C)Cc1ccc2c(c1)OCO2.Cl` (stereo not drawn) [Input 201101] showed a Dv10 [1] of 376 μm, a Dv50 [1] of 512 μm and a Dv90 [1] of 844 μm.
For `Fc1ccc([C@@H]2CCNC[C@H]2COc2ccc3c(c2)OCO3)cc1` [Paroxetine, reference compound], the “increase of AUC0-inf of MDMA” value [6] is listed as 27% and the “increase of Cmax of MDMA” value [6] is listed as 17%.
`CNC(C)Cc1ccc2c(c1)OCO2.Cl` (stereo not drawn) [CJS194-3] showed a Dv10 [1] of 20.9 μm, a Dv50 [1] of 134 μm and a Dv90 [1] of 326 μm.
With `CNC(C)Cc1ccc2c(c1)OCO2.Cl` (stereo not drawn) [CJS194-1] the Dv10 [1] was 29.0 μm, the Dv50 [1] was 170 μm and the Dv90 [1] was 342 μm.
In the case of `CNC(C)Cc1ccc2c(c1)OCO2.Cl` (stereo not drawn) [Form III], the “time to spontaneous conversion to Form I” value ([7]; storage at ambient conditions) is listed as 2.5 weeks.
With `CNC(C)Cc1ccc2c(c1)OCO2.Cl` (stereo not drawn) [CJS194-2] the Dv10 [1] was 20.0 μm, the Dv50 [1] was 135 μm and the Dv90 [1] was 326 μm.
For `CNC(C)Cc1ccc2c(c1)OCO2.Cl` (stereo not drawn) [CJS194-4], the Dv10 [1] was 23.8 μm, the Dv50 [1] was 161 μm and the Dv90 [1] was 353 μm.
In the case of `CNC(C)Cc1ccc2c(c1)OCO2.Cl` (stereo not drawn) [Form I], the “relative stability of Forms I-III” value ([7]; polymorphic screening) is given as “most stable of Forms I-III”.
